Where a name gives a salt, the structure may show the parent alone.

Test [1] deals with A431 cells (human epidermoid carcinoma). The test can be described thus: In vitro tumor cell proliferation assay (Cell Titer-Glo luminescent cell viability), A431 cells. The format is cell-based. The following applies: A-431, 72 h drug exposure, ATP luminescence readout, read-out: IC50, anti-proliferative activity (inhibition of cell proliferation) in A431 cells. An excerpt:
(§1) The tumor cell proliferation assay used to test the compounds of the present invention involves a readout called Cell Titer-Glow® Luminescent Cell Viability Assay developed by Promega® (Cunningham, B A “A Growing Issue: Cell Proliferation Assays, Modern kits ease quantification of cell growth” The Scientist 2001, 15(13), 26, and Crouch, S P et al., “The use of ATP bioluminescence as a measure of cell proliferation and cytotoxicity” Journal of Immunological Methods 1993, 160, 81-88), that measures inhibition of cell proliferation. Generation of a luminescent signal corresponds to the amount of ATP present, which is directly proportional to the number of metabolically active (proliferating) cells.
(§2) A431 cells (human epidermoid carcinoma, ATCC # HTB-20) and BT474 (human breast carcinoma, ATCC # CRL-1555) were plated at a density of 2.5×10^3 cells/well in 96 well black-clear bottom tissue culture plates in RPMI media with 10% Fetal Bovine Serum and incubated at 37° C. Twenty-four h later, test compounds are added at a final concentration range from as high 100 μm to as low 64 pM depend on the activities of the tested compounds in serial dilutions at a final DMSO concentration of 0.1%. Cells were incubated for 72 h at 37° C. in complete growth media after addition of the test compound. After 72 h of drug exposure, the plates were equilibrated to room temperature for approximately 30 min. Then, using a Promega Cell Titer Glo Luminescent® assay kit, lysis buffer containing 100 microliters of the enzyme luciferase and its substrate, luciferin mixture, was added to each well. The plates were mixed for 2 min on orbital shaker to ensure cell lysis and incubated for 10 min at room temperature to stabilize luminescence signal. The samples were read on VICTOR 2 using Luminescence protocol, and analyzed with Analyze5 software to generate IC50 values.
(§3) For determination of IC50's, a linear regression analysis can be used to determine drug concentration which results in a 50% inhibition of cell proliferation using this assay format. In A431 cells, Examples 1-7, 9-11, 14-18, and 20-21 have IC50's≦5 μM; whereas examples 8, 12, 13, 19, and 22 have IC50's≦50 μM. In BT474 cells, examples 1-7, 9-11, 13-18, and 20-22 have IC50's≦50 μM; whereas examples 8, 12, and 19 have IC50's≦50 μM.

For test [2], the system named is BT474 (human breast carcinoma). In words: In vitro tumor cell proliferation assay (Cell Titer-Glo luminescent cell viability), BT474 cells. The format is cell-based. The following applies: BT-474, 72 h drug exposure, ATP luminescence readout, read-out: IC50, anti-proliferative activity (inhibition of cell proliferation) in BT474 cells.
Description: as §1, §2, §3
A general note: In ATP-based viability assays light output follows the ATP content of the culture.

Turning to `Clc1cc(Nc2ncnc3sc4c(ccc5c4cnn5CCBr)c23)ccc1OCc1ccccn1` [Example 22, 3-(2-bromoethyl)-N-[3-chloro-4-(pyridin-2-ylmethoxy)phenyl]-3H-pyrimido[5′,4′:4,5]thieno[2,3-e]indazol-6-amine], the IC50 in test [1] and in test [2] was at most 50 µM throughout.
Regarding `Fc1ccc(Nc2ncnc3sc4c5cn(CCN6CCNCC6)nc5ccc4c23)cc1Cl` [Example 10, N-(3-chloro-4-fluorophenyl)-2-(2-piperazin-1-ylethyl)-2H-pyrimido[5′,4′:4,5]thieno[2,3-e]indazol-6-amine], the IC50 in test [1] was at most 5 µM; in test [2], at most 50 µM.
In the case of `OCCn1cc2c(ccc3c2sc2ncnc(Nc4ccc(F)c(Cl)c4)c23)n1` [Example 1, 2-{6-[(3-chloro-4fluorophenyl)amino]-2H-pyrimido[5′,4′:4,5]thieno[2,3-e]indazol-2-yl}ethanol], the IC50 in test [1] was at most 5 µM; in test [2], at most 50 µM.
The corresponding values for `CN(C)[C@@H]1CCN(CCn2cc3c(ccc4c3sc3ncnc(Nc5ccc(F)c(Cl)c5)c34)n2)C1` [Example 4] are at most 5 µM and at most 50 µM.
For the molecule `Fc1ccc(Nc2ncnc3sc4c5cn(CCN6CCOCC6)nc5ccc4c23)cc1Cl` [Example 9, N-(3-chloro-4-fluorophenyl)-2-(2-morpholin-4-ylethyl)-2H-pyrimido[5′,4′:4,5]thieno[2,3-e]indazol-6-amine], the results for the IC50 in test [1] and in test [2] were at most 5 µM and at most 50 µM, respectively.
The corresponding values for `OCCn1ncc2c3sc4ncnc(Nc5ccc(OCc6cccc(F)c6)c(Cl)c5)c4c3ccc21` [Example 21, 2-[6-({3-chloro-4-[(3-fluorobenzyl)oxy]phenyl}amino)-3H-pyrimido[5′,4′:4,5]thieno[2,3-e]indazol-3-yl]ethanol] are at most 5 µM and at most 50 µM.
As to `CN(C)[C@H]1CCN(CCn2cc3c(ccc4c3sc3ncnc(Nc5ccc(F)c(Cl)c5)c34)n2)C1` [Example 13, N-(3-chloro-4-fluorophenyl)-2-{2-[(3S)-3-(dimethylamino)pyrrolidin-1-yl]ethyl}-2H-pyrimido[5′,4′:4,5]thieno[2,3-e]indazol-6-amine], the IC50 in test [1] and in test [2] was at most 50 µM in each case.
As to `COCCN(C)CCn1cc2c(ccc3c2sc2ncnc(Nc4ccc(F)c(Cl)c4)c23)n1` [Example 19, N-(3-chloro-4-fluorophenyl)-2-{2-[(2-methoxyethyl)(methyl)amino]ethyl}-2H-pyrimido[5′,4′:4,5]thieno[2,3-e]indazol-6-amine], the IC50 in test [1] and in test [2] was at most 50 µM in each case.
On to `CN1CCN(CCn2cc3c(ccc4c3sc3ncnc(Nc5ccc(F)c(Cl)c5)c34)n2)CC1` [Example 11, N-(3-chloro-4-fluorophenyl)-2-[2-(4-methylpiperazin-1-yl)ethyl]-2H-pyrimido[5′,4′:4,5]thieno[2,3-e]indazol-6-amine], for which the IC50 in test [1] was at most 5 µM; in test [2] it was at most 50 µM.
For the molecule `OCCNCCn1cc2c(ccc3c2sc2ncnc(Nc4ccc(F)c(Cl)c4)c23)n1` [Example 7, 2-[(2-{6-[(3-chloro-4-fluorophenyl)amino]-2H-pyrimido[5′,4′:4,5]thieno[2,3-e]indazol-2-yl}ethyl)amino]ethanol], the figures for the IC50 in test [1] and in test [2] were at most 5 µM and at most 50 µM, respectively.
`COCCNCCn1cc2c(ccc3c2sc2ncnc(Nc4ccc(F)c(Cl)c4)c23)n1` [Example 6, N-(3-chloro-4-fluorophenyl)-2-{2-[(2-methoxyethyl)amino]ethyl}-2H-pyrimido[5′,4′:4,5]thieno[2,3-e]indazol-6-amine]: the IC50 in test [1] was at most 5 µM; in test [2], at most 50 µM.
Regarding `CN(C)[C@H]1CCN(CCn2ncc3c4sc5ncnc(Nc6ccc(F)c(Cl)c6)c5c4ccc32)C1` [Example 20, N-(3-chloro-4-fluorophenyl)-3-{2-[(3S)-3-(dimethylamino)pyrrolidin-1-yl]ethyl}-3H-pyrimido[5′,4′:4,5]thieno[2,3-e]indazol-6-amine], the IC50 in test [1] is at most 5 µM; in test [2], at most 50 µM.
The matching figures for `CS(=O)(=O)OCCn1cc2c(ccc3c2sc2ncnc(Nc4ccc(F)c(Cl)c4)c23)n1` [Example 2, 2-{6-[(3-chloro-4fluorophenyl)amino]-2H-pyrimido[5′,4′:4,5]thieno[2,3-e]indazol-2-yl}ethylmethanesulfonate]: at most 5 µM and at most 50 µM.
The matching figures for `Fc1ccc(Nc2ncnc3sc4c5cn(CCN6CCN(Cc7ccncc7)CC6)nc5ccc4c23)cc1Cl` [Example 18, N-(3-chloro-4-fluorophenyl)-2-{2-[4-(pyridin-4-ylmethyl)piperazin-1-yl]ethyl}-2H-pyrimido[5′,4′:4,5]thieno[2,3-e]indazol-6-amine]: at most 5 µM and at most 50 µM.
`Fc1ccc(Nc2ncnc3sc4c5cn(CCn6ccnc6)nc5ccc4c23)cc1Cl` [Example 12, N-(3-chloro-4-fluorophenyl)-2-[2-(1H-imidazol-1-yl)ethyl]-2H-pyrimido[5′,4′:4,5]thieno[2,3-e]indazol-6-amine]: the IC50 in test [1] and in test [2] was at most 50 µM in each case.
Turning to `OCCN(CCO)CCn1cc2c(ccc3c2sc2ncnc(Nc4ccc(F)c(Cl)c4)c23)n1` [Example 14, 2,2′-[(2-{6-[(3-chloro-4-fluorophenyl)amino]-2H-pyrimido[5′,4′:4,5]thieno[2,3-e]indazol-2-yl}ethyl)imino]diethanoltrifluoroacetate (salt)], the IC50 was at most 5 µM in test [1] and at most 50 µM in test [2].
For `COCCN(CCOC)CCn1cc2c(ccc3c2sc2ncnc(Nc4ccc(F)c(Cl)c4)c23)n1` [Example 8, 2-{2-[bis(2-methoxyethyl)amino]ethyl}-N-(3-chloro-4-fluorophenyl)-2H-pyrimido[5′,4′:4,5]thieno[2,3-e]indazol-6-amine], the IC50 in test [1] and in test [2] was at most 50 µM throughout.
As for `CS(=O)(=O)CCNCCn1cc2c(ccc3c2sc2ncnc(Nc4ccc(F)c(Cl)c4)c23)n1` [Example 3, N-(3-chloro-4-fluorophenyl)-2-(2-{[2-(methylsulfonyl)ethyl]amino}ethyl)-2H-pyrimido[5′,4′:4,5]thieno[2,3-e]indazol-6-amine], the IC50 was at most 5 µM in test [1] and at most 50 µM in test [2].
The matching figures for `Fc1ccc(Nc2ncnc3sc4c5cn(CCNCCN6CCOCC6)nc5ccc4c23)cc1Cl` [Example 5, N-(3-chloro-4-fluorophenyl)-2-{2-[(2-morpholin-4-ylethyl)amino]ethyl}-2H-pyrimido[5′,4′:4,5]thieno[2,3-e]indazol-6-amine]: at most 5 µM and at most 50 µM.
Take `COCCN1CCN(CCn2cc3c(ccc4c3sc3ncnc(Nc5ccc(F)c(Cl)c5)c34)n2)CC1` [Example 15, N-(3-chloro-4-fluorophenyl)-2-{2-[4-(2-methoxyethyl)piperazin-1-yl]ethyl}-2H-pyrimido[5′,4′:4,5]thieno[2,3-e]indazol-6-amine]: the IC50 in test [1] is at most 5 µM; in test [2], at most 50 µM.
Regarding `Fc1ccc(Nc2ncnc3sc4c5cn(CCN6CCCC6)nc5ccc4c23)cc1Cl` [Example 17, N-(3-chloro-4-fluorophenyl)-2-(2-pyrrolidin-1-ylethyl)-2H-pyrimido[5′,4′:4,5]thieno[2,3-e]indazol-6-amine], the IC50 is at most 5 µM in test [1] and at most 50 µM in test [2].
The corresponding values for `Fc1ccc(Nc2ncnc3sc4c5cn(CCN6CCCCC6)nc5ccc4c23)cc1Cl` [Example 16, N-(3-chloro-4-fluorophenyl)-2-(2-piperidin-1-ylethyl)-2H-pyrimido[5′,4′:4,5]thieno[2,3-e]indazol-6-amine] are at most 5 µM and at most 50 µM.

The values are drawn from patent US7511048B2, “Pyrimidothienoindazoles” (Bayer Pharmaceuticals Corporation, priority 2004, dated 2009).
